From patent EP0826686A2, “Tricyclic compounds, their production and use” (TAKEDA CHEMICAL INDUSTRIES, LTD., priority 1996, dated 1998)
Where a name gives a salt, the structure may show the parent alone.

How the values were obtained:
[1] = system: Human skin fibroblasts (Hs68); assay: PDGF-induced proliferation in Hs68 cells (3H-thymidine uptake); type: cell-based; conditions: PDGF-BB 5 ng/ml, 24 hours; for inhibition at 1 µM: Concentration 1x10^-6 M; for inhibition at 3 µM: Concentration 3x10^-6 M; for inhibition at 0.3 µM: Concentration 3x10^-7 M
Protocol: Experiments of PDGF-induced proliferation in Hs68 cells Method: Human skin fibroblasts (Hs68, Institute for Fermentation, Osaka) were seeded in 48-well plates precoated with collagen type I (Falcon) (25000 cells/well), and cultured for one day. Then, the cells were cultured in Dulbecco's modified Eagle's medium (high glucose) containing 0.1% bovine serum albumin for 48 hours. Fifteen (15) minutes after the addition of the drug, the cells were stimulated with 5 ng/ml of PDGF-BB (Becton Dickinson Labware) containing ^3H-thymidine (final concentration 0.4 mCi/ml) (Amersham). After 24 hours, the reaction was stopped with 7.5% trichloroacetic acid at 4°C and the plate was allowed to stand at 4°C for 30 minutes. The cells were washed with Ca^2+- and Mg^2+-free phosphate-buffered saline (PBS), after then 0.1% sodium dodecyl sulfate (SDS)/0.4N NaOH was added and the plate was allowed to stand at 37°C for 1 hour to lyze the cells. The whole content of each well was taken in a vial and neutralized with 1N HCl, and then toluene scintillator (Wako Pure Chemical Ind.) was added to each vial. After stirring, the amount of ^3H-thymidine incorporated in the cells was determined with a liquid scintillation counter. The cellular uptake of ^3H-thymidine was used as an indicator of cell proliferation. The effect of the drug on the PDGF-BB (5 ng/ml) uptake of ^3H-thymidine was expressed as % inhibition. […]

[2] = system: Glomerular mesangial cells; assay: Inhibition of the proliferation of mesangial cells (PDGF-BB stimulated, 3H-thymidine uptake); type: cell-based, Sprague-Dawley rats; conditions: Rattus norvegicus, Glomerular mesangial cell, 24 h, PDGF-BB 5 ng/ml, read-out: Proliferation inhibiting activity (% Inhibition); for inhibition at 1 µM: Dose 10^-6 M; for inhibition at 3 µM: Dose 3 x 10^-6 M
Protocol: Glomerular mesangial cells isolated from 4-week-old male Sprague-Dawley rats (Japan Clea) were cultured in a 24-well plate (Falcon) up to the subconfluence. The cells were subsequently cultured in Dulbecco's modified Eagle MEM containing 0.2% bovine serum albumin for 24 - 48 hours before addition of a drug substance. Fifteen minutes after the drug substance was added to the culture, the cells were allowed to react with 5 ng/ml of PDGF-BB (Becton Dickinson Labwere) for stimulation, simultaneously adding ^3H-Thymidine (final concentration 0.2 µ Ci/ml) (Amasham), for 24 hours. The reaction was blocked by adding 7.5 % TCA of 4°C. The mixture was allowed to stand at 4°C for 30 minutes. The cells were washed with phosphate buffered saline containing no Ca^2+ and Mg^2+. A 0.4N NaOH/0.1% sodium dodecyl sulfate (SDS) solution was added to the washed cells and the mixture was allowed to stand at 37°C for an hour to solubilize the cells. The whole qauntity was placed in a vial and neutralized with 1N HCl. Scintillator A (Wako Pure Chemicals) was added to this with stirring. The quantity of ^3H-Thymidine incorporated in the cells was measured by the liquid scintillation counter. The increase in the quantity of the incorporated ^3H-Thymidine was designated as the parameter of the cell proliferation. The inhibitory effect of a drug substance on the intake with PDGF-BB (5 ng/ml) was expressed as % inhibition (Table 1).

SHC rats = assay: Urinary protein excretion in SHC rats; type: in vivo, Spontaneously hypercholesterolemic rats; conditions: 1 mg/kg/day oral once daily
Source text: Experiments of urinary protein excretion in SHC rats Method: Spontaneously hypercholesterolemic rats (male, 7 weeks old) were given a drug suspended in 0.5% methylcellulose (100 cP) by oral administration once daily for 6 weeks. A control group was given 0.5% methylcellulose (100 cP) by the same route once daily. As a normal control group, Sprague-Dawley rats (SD rats) (male, 7 weeks old, CLEA Japan, Inc.) were given 0.5% methylcellulose (100 cP) orally once daily. Before the start of medication and at 2-weeks intervals after the first administration of drugs, urine was collected for twenty four hours and the total protein and albumin excreted in the urine were determined. The assay of total protein and albumin was carried out using the A/GB Test Wako (Wako Pure Chemical Ind.).

[3] = duration of administration 0 weeks (before start of medication)
[4] = duration of administration 2 weeks
[5] = duration of administration 4 weeks
[6] = duration of administration 6 weeks

Which inhibition at 1 µM [1] does the source give for `O=c1c2cnc3cccc(n1CC1CCN(S(=O)(=O)C(F)(F)F)CC1)n32` [8(ii), 1,2-Dihydro-1-(1-trifluoromethanesulfonylpiperidin-4-ylmethyl)-1,4,7b-triazacyclopent[cd]inden-2-one] here?
The inhibition at 1 µM was 74.9%.

`O=C1c2cnc3cccc(n23)CN1CC1CCN(S(=O)(=O)C(F)(F)F)CC1` [11(iii), 4,5-Dihydro-4-(1-trifluoromethanesulfonylpiperidin-4-ylmethyl)-3H-1,4,8b-triazaacenaphthylen-3-one hydrochloride] was tested. Which inhibition at 3 µM [1] did it give?
Its inhibition at 3 µM is 59.2%.

With `O=C1c2cnc3cccc(n23)CN1CCC1CCN(S(=O)(=O)C(F)(F)F)CC1` [12(ii), 4,5-Dihydro-4-[2-(1-trifluoromethanesulfonylpiperidin-4-yl)ethan-1-yl]-3H-1,4,8b-triazaacenaphthylen-3-one] as the compound, how does the inhibition at 1 µM [1] read?
Its inhibition at 1 µM is 96.6%.

How did the inhibition at 0.3 µM [1] turn out when `Cc1nc2cccc3nc(SCCC4CCN(S(=O)(=O)C(F)(F)F)CC4)c1n23` [25(ii), 3-Methyl-2-[2-(1-trifluoromethanesulfonylpiperidin-4-yl)ethan-1-yl]thio-1,4,7b-triazacyclopent[cd]indene] was run?
Its inhibition at 0.3 µM is 83.4%.

`Cc1nc2cccc3n(CCC4CCN(S(=O)(=O)C(F)(F)F)CC4)c(=O)c1n23` [Compound 3, 1,2-dihydro-3-methyl-1-[2-(1-trifluoromethanesulfonylpiperidin-4-yl)ethan-1-yl]-1,4,7b-triazacyclopent[cd]inden-2-one hydrochloride] was tested. Which inhibition at 0.3 µM ([2]; Dose 3 x 10^-7 M) did it give?
The inhibition at 0.3 µM was 39%.

And the inhibition at 1 µM [2]?
Its inhibition at 1 µM is 91.1%.

How did the inhibition at 3 µM [2] turn out when `CC(C)(C)OC(=O)N1CCC(Cn2c(=O)c3cnc4cccc2n43)CC1` [Example 1, 1,2-Dihydro-1-(1-tert-butoxycarbonylpiperidin-4-ylmethyl)-1,4,7b-triazacyclopent[cd]inden-2-one] was run?
Its inhibition at 3 µM is 39.4%.

Which results are given for `CC(C)(C)OC(=O)N1CCC(CCn2c(=O)c3cnc4cccc2n43)CC1` [Example 2, 1,2-Dihydro-1-[2-(1-tert-butoxycarbonylpiperidin-4-yl)ethan-1-yl]-1,4,7b-triazacyclopent[cd]inden-2-one]?
inhibition at 3 µM [2]: 40.1%; inhibition at 10 µM ([2]; Dose 10^-5 M): 58.3%; inhibition at 1 µM [2]: 11.1%

Which inhibition at 0.3 µM [1] does the source give for `O=c1c2cnc3cccc(n1CCC1CCN(S(=O)(=O)C(F)(F)F)CC1)n32` [Example 9(ii), 1,2-dihydro-1-[2-(1-trifluoromethanesulfonylpiperidin-4-yl)ethan-1-yl]-1,4,7b-triazacyclopent[cd]inden-2-one] here?
The inhibition at 0.3 µM was 94.9%.

And the Urinary albumin (SHC rats; [3])?
The Urinary albumin was 12.0 mg/day.

And the Urinary total protein (SHC rats; [3])?
Its Urinary total protein is 39.2 mg/day.

And the Urinary albumin (SHC rats; [4])?
Its Urinary albumin is 10.9 mg/day.

What about the Urinary total protein (SHC rats; [4]) of the same compound?
Its Urinary total protein is 50.4 mg/day.

What about the Urinary albumin (SHC rats; [5]) of the same compound?
Its Urinary albumin is 46.2 mg/day.

What about the Urinary total protein (SHC rats; [5]) of the same compound?
The Urinary total protein was 91.3 mg/day.

What about the Urinary albumin (SHC rats; [6]) of the same compound?
Its Urinary albumin is 129.9 mg/day.

What about the Urinary total protein (SHC rats; [6]) of the same compound?
The Urinary total protein was 199.4 mg/day.

With `O=C1c2cccc3ncc(n23)CN1CCC1CCN(S(=O)(=O)C(F)(F)F)CC1` [Example 19, 4,5-Dihydro-4-[2-(1-trifluoromethanesulfonylpiperidin-4-yl)ethan-1-yl]-3H-1,4,8b-triazaacenaphthylen-5-one] as the compound, how does the inhibition at 1 µM [1] read?
The inhibition at 1 µM was 72.8%.

Which inhibition at 0.3 µM [1] does the source give for `Cc1nc2cccc3n(CCCC4CCN(S(=O)(=O)C(F)(F)F)CC4)c(=O)c1n23` [Example 23, 1,2-Dihydro-3-methyl-1-[3-(1-trifluoromethanesulfonylpiperidin-4-yl)propan-1-yl]-1,4,7b-triazacyclopent[cd]inden-2-one] here?
The inhibition at 0.3 µM was 44.6%.

`Cc1nc2cccc3n(CCC4CCN(C(=O)C(F)(F)C(F)(F)F)CC4)c(=O)c1n23` [Example 27, 1,2-Dihydro-3-methyl-1-[2-(1-pentafluoropropionylpiperidin-4-yl)ethan-1-yl]-1,4,7b-triazacyclopent[cd]inden-2-one] was tested. Which inhibition at 1 µM [1] did it give?
The inhibition at 1 µM was 62.7%.

For `Cc1nc2cccc3n(C[C@H]4CC[C@H](CNC(=O)C(F)(F)F)CC4)c(=O)c1n23` [Example 29, 1,2-Dihydro-3-methyl-1-[trans-4-(trifluoroacetylamino)methyl-1-cyclohexylmethyl]-1,4,7b-triazacyclopent[cd]inden-2-one], which inhibition at 3 µM [1] is on record?
The inhibition at 3 µM was 76.1%.

Which inhibition at 1 µM [1] does the source give for `Cc1ccc(S(=O)(=O)NC[C@H]2CC[C@H](Cn3c(=O)c4c(C)nc5cccc3n54)CC2)cc1` [Example 32, 1,2-Dihydro-3-methyl-1-[trans-4-(4-methylphenylsulfonylamino)methyl-1-cyclohexylmethyl]-1,4,7b-triazacyclopent[cd]inden-2-one] here?
The inhibition at 1 µM was 80.3%.
